{"source": "patent US20080227846A1", "about": "“METHODS OF TREATING JUVENILE TYPE 1 DIABETES MELLITUS” (MUSC Foundation for Research Development, priority 2007, published 2008)", "key": {"NOD mice [1]": {"test_system": "NOD mice", "experiment": "Prevention of diabetes in NOD mice, daily oral atorvastatin calcium or AICAR", "assay_type": "in vivo, mouse", "conditions": "for NOD mice without diabetes compared to saline: FIG. 6, atorvastatin p<0.004, AICAR 10 mg/kg body weight per day orally p<0.001", "description": "The non-obese diabetic (NOD) mouse model is the best-studied animal model of autoimmune diabetes. […] Spontaneous diabetes occurs in female NOD mice and is preceded by insulitis, a lymphocytic infiltration of the pancreatic islets, which is the major histologic event occurring by 5-8 weeks in the NOD mouse (Chatenoud et al., Proc. Natl. Acad. Sci. 91:123-127, 1994).\nIn these experiments, 4-week old female NOD mice were obtained from Jackson Laboratories (JAX strain no 001976; NOD/LtJ strain) and maintained in a sterile environment. Drug treatment began at 4-weeks of age, prior to inflammatory disease onset. Under normal conditions, diabetes begins appearing in NOD mice by 12-weeks in untreated animals, with 90-100% of the mice developing the disease by 30-weeks.\nThe animals were divided into three groups of 23 animals each. Group 1 was the control and received vehicle only by oral lavage of physiological saline daily. Groups 2 and 3 received atorvastatin calcium (Lipitor®) at a dose of 5 or 10 mg/kg body weight daily, respectively. Blood glucose (BG) was measured in each animal three-times per week. […] Also, two non-diabetic animals from each group were sacrificed on days 50, 70, and 80 for histological and cytokine analyses (not included in FIG. 1).\nIn addition to statins, AICAR was also administered to NOD mice at 10 mg/kg body weight per day orally."}, "[2]": {"test_system": "iNOS, TNF-α, and IFN-γ mRNA", "experiment": "Quantitative real-time PCR of pancreas, pro-inflammatory cytokines and iNOS", "assay_type": "in vivo, mouse", "conditions": "FIG. 9, vs saline-treated mice"}, "[3]": {"test_system": "macrophages (ED1) and granulocytes (GR) infiltrated into the pancreatic islets", "experiment": "Immunohistopathology staining of pancreas for infiltration of macrophages and granulocytes", "conditions": "for entry of inflammatory cells into pancreatic tissue: animals of Example 1"}, "NOD mice [4]": {"test_system": "NOD mice", "experiment": "Atorvastatin calcium and AICAR, individually and in combination, blood glucose in NOD mice", "assay_type": "in vivo, mouse", "conditions": "FIG. 8"}, "iNOS and TNF-α protein": {"test_system": "iNOS and TNF-α protein", "experiment": "Western blot of pancreas tissue", "assay_type": "in vivo, mouse", "conditions": "vs saline-treated diabetic mice"}, "[5]": {"conditions": "Palomer et al., Diabetologia 48:1671-1673 (2005); cited from earlier work"}, "[6]": {"test_system": "juvenile patients newly diagnosed with T1DM", "experiment": "Statin treatment of juvenile patients newly diagnosed with T1DM, C-peptide", "assay_type": "in vivo, human", "conditions": "patient", "protocol": "Two juvenile patients newly diagnosed with T1DM were treated with a statin in order to evaluate whether the diabetic condition in the juvenile patient can be stabilized or reversed by statin treatment. A human patient who was positive for insulin antibodies was identified as having new onset T1DM. […] The patient was treated with 10 mg/day for the first two weeks after diagnosis, and 20 mg/day thereafter.\nA human patient who was positive for insulin antibodies was identified as having new onset T1DM. The patient began treatment with 20 mg/day atorvastatin calcium (Lipitor®) at the time (the day of) diagnosis of T1DM. […] Normally, within 12 months after diagnosis a child would have been expected to drop from 100% of the insulin the patient started with to 14.0%±7% (s.d.) of the insulin the child started with."}, "NOD mice [7]": {"test_system": "NOD mice", "experiment": "Simvastatin plus insulin, blood glucose in NOD mice", "assay_type": "in vivo, mouse", "protocol": "In another experiment, simvastatin was administered to NOD mice, and the animals were supplemented with insulin in an attempt to keep the animals from developing diabetic ketoacidosis. The study was designed to examine whether simvastatin at 2 mg/kg/day and 5 mg/kg/day protected islet cells from damage during early phases of diabetes. […]. The animals were divided into four groups randomly. Group 1 was the control and received oral lavage of physiological saline daily, plus insulin as set forth above. Groups 2 and 3 received simvastatin at a dose of 2 mg/kg/day or 5 mg/kg/day, respectively, along with insulin as set forth above. Group 4 received no treatment with either simvastatin or insulin. Blood glucose (BG) was measured in each animal approximately once a week, unless the glucose level of an animal began to fluctuate, at which time glucose level were measured every other day. This study lasted approximately four months. The last column of Table 1 is a list of measurements of glucose levels in all animals treated with simvastatin."}, "new-onset T1DM patients": {"test_system": "new-onset T1DM patients", "conditions": "cited from earlier work"}}, "note": "Values joined by “and” are separate entries in the source; they are usually repeats but may differ in a detail not shown here. Equal entries are not always repeated.", "data": [{"compound": "NC(=O)c1ncn([C@@H]2O[C@H](CO)[C@@H](O)[C@H]2O)c1N", "note": "[AICAR, 5-aminoimidazole-4-carboxamide ribonucleoside]", "values": [{"measurement": "NOD mice without diabetes compared to saline", "setting": "NOD mice [1]", "result": "significantly different"}, {"measurement": "mRNA expression of iNOS, TNF-α, and IFN-γ in pancreas", "setting": "[2]", "result": "elevated in saline-treated mice"}, {"measurement": "entry of inflammatory cells into pancreatic tissue", "setting": "[3]", "result": "inflammatory cells are not entering pancreatic tissue"}, {"measurement": "mean BG vs control Group 1", "setting": "NOD mice [4]; Group 4, 0.5 mg/gm body weight daily oral, p=0.025 by log-rank test", "result": "lower"}]}, {"compound": "CC(C)c1c(C(=O)Nc2ccccc2)c(-c2ccccc2)c(-c2ccc(F)cc2)n1CC[C@@H](O)C[C@@H](O)CC(=O)O", "note": "[atorvastatin calcium]", "values": [{"measurement": "mean BGs", "setting": "NOD mice [1]; 10 mg/kg daily oral, s.e.=15, n=277, p<0.001 vs saline 219", "result": 182.5}, {"measurement": "NOD mice without diabetes compared to saline", "setting": "NOD mice [1]", "result": "effective"}, {"measurement": "protection from development of auto-immune diabetes", "setting": "NOD mice [1]; NOD mice, 5 or 10 mg/kg daily", "result": "partially protects"}, {"measurement": "number of surviving disease-free animals vs control group", "setting": "NOD mice [1]; after 104 days of treatment, 5 or 10 mg/kg daily, FIG. 1", "result": "greater"}, {"measurement": "number of animals that developed diabetes", "setting": "NOD mice [1]; during treatment, FIG. 1", "result": "reduction in the number of animals that developed diabetes"}, {"measurement": "expression of iNOS and TNF-α protein in pancreas", "setting": "iNOS and TNF-α protein", "result": "increased expression of iNOS and TNF-α protein in saline-treated diabetic mice compared with atorvastatin calcium-treated mice"}, {"measurement": "effect on preventing diabetes", "setting": "[5]", "result": "no effect on preventing diabetes"}, {"measurement": "C-peptide", "setting": "[6]; 10 mg/day two weeks then 20 mg/day, six months, FIG. 14", "result": "marked increase in C-peptide"}, {"measurement": "rise of C-peptide levels", "setting": "[6]; 20 mg/day, after 50 days of treatment", "result": 39.25, "unit": "%"}, {"measurement": "C-peptide level", "setting": "[6]; 20 mg/day, after 50 days of treatment, initial 35.8 units", "result": 49.85, "unit": "units"}, {"measurement": "increase of insulin over the original amount of C-peptide", "setting": "[6]; 20 mg/day, over a period of 24 months, FIG. 15", "result": 240, "unit": "%"}, {"measurement": "net increase of the amount of insulin vs expected", "setting": "[6]; expected […]±7% of starting insulin within 12 months", "result": 600, "unit": "%"}, {"measurement": "mRNA expression of iNOS, TNF-α, and IFN-γ in pancreas", "setting": "[2]", "result": "elevated in saline-treated mice"}, {"measurement": "entry of inflammatory cells into pancreatic tissue", "setting": "[3]", "result": "inflammatory cells are not entering pancreatic tissue"}, {"measurement": "immunostaining for ED1 and GR1 marker proteins in pancreas", "setting": "[3]; vs intense staining in saline-treated mice", "result": "No immunostaining was observed"}, {"measurement": "mean BG vs control Group 1", "setting": "NOD mice [4]; Group 2, 5 mg/kg body weight daily oral, day 59-109 after weaning", "result": "lower"}, {"measurement": "mean BG vs control Group 1", "setting": "NOD mice [4]; Group 3, 10 mg/kg body weight daily oral, day 59-109 after weaning", "result": "lower"}]}, {"compound": "CCC(C)(C)C(=O)O[C@H]1C[C@@H](C)C=C2C=C[C@H](C)[C@H](CC[C@@H]3C[C@@H](O)CC(=O)O3)[C@H]21", "note": "[simvastatin]", "values": [{"measurement": "average blood glucose level", "setting": "NOD mice [7]; Group 2, simvastatin 2 mg/kg/day plus insulin, 36 determinations, p=0.05 vs saline plus insulin", "result": "143.6 ± 26.5", "unit": "mg/dL"}, {"measurement": "average blood glucose level", "setting": "NOD mice [7]; Group 2, simvastatin 2 mg/kg/day plus insulin, 36 determinations, p=0.05 vs saline plus insulin, listed as Simv.", "result": 143.6, "unit": "mg/dL"}, {"measurement": "average blood glucose level", "setting": "NOD mice [7]; Group 3, simvastatin 5 mg/kg/day plus insulin, 28 determinations, p<0.02 vs saline plus insulin", "result": "134.5 ± 15.7", "unit": "mg/dL"}, {"measurement": "average blood glucose level", "setting": "NOD mice [7]; Group 3, simvastatin 5 mg/kg/day plus insulin, 28 determinations, p<0.02 vs saline plus insulin, listed as Simv.", "result": 134.5, "unit": "mg/dL"}, {"measurement": "average blood glucose level", "setting": "NOD mice [7]; Simvastatin Combined, 64 determinations", "result": "139.7 mg/dL and 139.6563 mg/dL"}]}, {"compound": "TRX4: anti-CD3 monoclonal antibody with orphan drug status", "values": [{"measurement": "adverse effect associated with therapy", "setting": "new-onset T1DM patients; six-day intravenous infusion", "result": "moderate “flu-like” syndrome"}]}, {"compound": "hOKT3y1(ala-ala): modified, nonmitogenic, humanized form of the anti-CD3 monoclonal antibody", "values": [{"measurement": "patients who maintained the same or improved endogenous insulin secretion", "setting": "new-onset T1DM patients; one year after initial 14-day course, 25% in the control group, Herold et al. 2002", "result": 75, "unit": "%"}]}]}
